One data set in a line: in vitro. Particulars: human.
In a further data set the test system is rgRSV224 virus. The data set is described as follows: Antiviral activity: rgRSV224 (GFP) replication in HeLa cells. Particulars: human respiratory syncytial virus, 72 h, read-out: RSV HELA EC50.

Where a name gives a salt, the structure may show the parent alone.

As a reminder, the EC50 is the midpoint of the concentration-response curve.

Method for in vitro: (§1) Black 384-well clear-bottom microtiter plates (Corning, Amsterdam, The Netherlands) were filled via acoustic drop ejection using the echo liquid handler (Labcyte, Sunnyvale, Calif.). 200 nL of compound stock solutions (100% DMSO) were transferred to the assay plates. 9 serial 4-fold dilutions of compound were made, creating per quadrant the same compound concentration. The assay was initiated by adding 10 μL of culture medium to each well (RPMI medium without phenol red, 10% FBS-heat inactivated, 0.04% gentamycin (50 mg/mL). All addition steps are done by using a multidrop dispenser (Thermo Scientific, Erembodegem, Belgium). Next, rgRSV224 virus (MOI=1) diluted in culture medium was added to the plates. rgRSV224 virus is an engineered virus that includes an additional GFP gene (Hallak L K, Spillmann D, Collins P L, Peeples M E. Glycosaminoglycan sulfation requirements for respiratory syncytial virus infection; Journal of virology (2000), 74(22), 10508-13) and was in-licensed from the NIH (Bethesda, Md., USA). Finally, 20 μL of a HeLa cell suspension (3,000 cells/well) were plated. Medium, virus- and mock-infected controls were included in each test. The wells contain 0.05% DMSO per volume. Cells were incubated at 37° C. in a 5% CO2 atmosphere. Three days post-virus exposure, viral replication was quantified by measuring GFP expression in the cells by an in house developed MSM laser microscope (Tibotec, Beerse, Belgium). The EC50 was defined as the 50% inhibitory concentration for GFP expression. In parallel, compounds were incubated for three days in a set of white 384-well microtiter plates (Corning) and the cytotoxicity of compounds in HeLa cells was determined by measuring the ATP content of the cells using the ATPlite kit (Perkin Elmer, Zaventem, Belgium) according to the manufacturer's instructions. The CC50 was defined as the 50% concentration for cytotoxicity.
Method for rgRSV224 virus: as §1

On to `C[C@@H]1c2ccccc2CCN1C(=O)c1cc(C2CC2)n2nc(-c3cnc(C4C[C@H]4C(N)=O)cc3F)cc2n1` (relative stereo) [Compound 49, Trans-2-(5-{7-Cyclopropyl-5-[(1R)-1-methyl-1,2,3,4-tetrahydroisoquinoline-2-carbonyl]pyrazolo[1,5-a]pyrimidin-2-yl}-4-fluoropyridin-2-yl)cyclopropane-1-carboxamide], for which, in the data set “in vitro”, the CC50 at 3 days was 10800 nM. The EC50 with rgRSV224 virus stood at 150 nM.

Take `C[C@@H]1c2ccccc2CCN1C(=O)c1cc(C2CC2)n2nc(-c3cnc(C4C[C@H]4C(=O)NS(C)(=O)=O)cc3F)cc2n1` (relative stereo) [Compound 50, Trans-2-(5-{7-Cyclopropyl-5-[(1R)-1-methyl-1,2,3,4-tetrahydroisoquinoline-2-carbonyl]pyrazolo[1,5-a]pyrimidin-2-yl}-4-fluoropyridin-2-yl)-N-methanesulfonylcyclopropane-1-carboxamide]: the CC50 at 3 days in the data set “in vitro” was 53300 nM. In addition, in the data set on rgRSV224 virus, the EC50 was determined as 389 nM.

Turning to `C[C@@H]1c2ccccc2CCN1C(=O)c1cc(C2CC2)n2nc(-c3ccc(C4C[C@H]4C(N)=O)nc3F)cc2n1` (relative stereo) [Compound 51, Trans-2-(5-{7-Cyclopropyl-5-[(1R)-1-methyl-1,2,3,4-tetrahydroisoquinoline-2-carbonyl]pyrazolo[1,5-a]pyrimidin-2-yl}-6-fluoropyridin-2-yl)cyclopropane-1-carboxamide], the CC50 at 3 days in “in vitro” amounted to 25900 nM. The EC50 in the data set with rgRSV224 virus stood at 47 nM.

In the data set “in vitro”, `C[C@@H]1c2ccccc2CCN1C(=O)c1cc(C2CC2)n2nc(-c3ccc(C4C[C@H]4C(=O)NS(C)(=O)=O)nc3F)cc2n1` (relative stereo) [Compound 52, Trans-2-(5-{7-Cyclopropyl-5-[(1R)-1-methyl-1,2,3,4-tetrahydroisoquinoline-2-carbonyl]pyrazolo[1,5-a]pyrimidin-2-yl}-6-fluoropyridin-2-yl)-N-methanesulfonylcyclopropane-1-carboxamide] showed a CC50 at 3 days of 65300 nM. In addition, in the data set on rgRSV224 virus, the EC50 turned out to be 117 nM.

For `C[C@@H]1c2ccccc2CCN1C(=O)c1cc(-c2ccccc2)n2nc(-c3ccc([C@H]4C[C@@H]4C(=O)NS(C)(=O)=O)cc3F)cc2n1` (single isomer, unassigned) [Compound 31, (1*S,2*S)-2-(3-Fluoro-4-{5-[(1R)-1-methyl-1,2,3,4-tetrahydroisoquinoline-2-carbonyl]-7-phenylpyrazolo[1,5-a]pyrimidin-2-yl}phenyl)-N-methanesulfonyl-cyclopropane-1-carboxamide; propan-2-amine salt], the CC50 at 3 days in the data set “in vitro” turned out to be 35200 nM. Further, the EC50 in the data set with rgRSV224 virus amounted to 40 nM.

As to `C[C@@H]1c2ccccc2CCN1C(=O)c1cc(-c2ccccc2)n2nc(-c3ccc([C@@H]4C[C@H]4C(=O)NS(C)(=O)=O)cc3F)cc2n1` (single isomer, unassigned) [Compound 32, (1*R,2*R)-2-(3-Fluoro-4-{5-[(1R)-1-methyl-1,2,3,4-tetrahydroisoquinoline-2-carbonyl]-7-phenylpyrazolo[1,5-a]pyrimidin-2-yl}phenyl)-N-methanesulfonyl-cyclopropane-1-carboxamide; propan-2-amine salt], the CC50 at 3 days in “in vitro” turned out to be 37300 nM. For the same compound, in the data set on rgRSV224 virus, the EC50 is 61 nM.

As to `C[C@@H]1c2ccccc2CCN1C(=O)c1cc(C2CC2)n2nc(-c3ccc([C@H]4C[C@@H]4CO)cc3F)cc2n1` [Compound 1, [(1S,2S)-2-(4-{7-Cyclopropyl-5-[(1R)-1-methyl-1,2,3,4-tetrahydroisoquinoline-2-carbonyl]pyrazolo[1,5-a]pyrimidin-2-yl}-3-fluorophenyl)cyclopropyl]methanol], the CC50 at 3 days in the data set “in vitro” came out at 41800 nM. Also, the concentration for a half-maximal effect (EC50) in the data set with rgRSV224 virus was 62 nM.

Regarding `C[C@@H]1c2ccccc2CCN1C(=O)c1cc(C2CC2)n2nc(-c3ccc([C@@H]4C[C@H]4c4cc(=O)[nH]o4)cc3F)cc2n1` [Compound 2, 5-[(1R,2R)-2-(4-{7-Cyclopropyl-5-[(1R)-1-methyl-1,2,3,4-tetrahydroisoquinoline-2-carbonyl]pyrazolo[1,5-a]pyrimidin-2-yl}-3-fluorophenyl)cyclopropyl]-2,3-dihydro-1,2-oxazol-3-one], in the data set “in vitro”, the CC50 at 3 days was determined as 42500 nM. The half-maximal effective concentration (EC50) in the data set with rgRSV224 virus was found to be 84 nM.

In the data set “in vitro”, `C[C@@H]1c2ccccc2CCN1C(=O)c1cc(C2CC2)n2nc(-c3ccc([C@H]4C[C@@H]4C#N)cc3F)cc2n1` [Compound 3, (1S,2S)-2-(4-{7-Cyclopropyl-5-[(1R)-1-methyl-1,2,3,4-tetrahydroisoquinoline-2-carbonyl]pyrazolo[1,5-a]pyrimidin-2-yl}-3-fluorophenyl)cyclopropane-1-carbonitrile] displayed a CC50 at 3 days above 100000 nM. For the same compound, in the data set with rgRSV224 virus, the EC50 was determined as 319 nM.

In turn, `C[C@@H]1c2ccccc2CCN1C(=O)c1cc(C2CC2)n2nc(-c3ccc([C@H]4C[C@@H]4c4noc(=O)[nH]4)cc3F)cc2n1` [Compound 5, 3-[(1S,2S)-2-(4-{7-Cyclopropyl-5-[(1R)-1-methyl-1,2,3,4-tetrahydroisoquinoline-2-carbonyl]pyrazolo[1,5-a]pyrimidin-2-yl}-3-fluorophenyl)cyclopropyl]-4,5-dihydro-1,2,4-oxadiazol-5-one] returned a CC50 at 3 days in the data set “in vitro” of 41800 nM. Moreover, in the data set with rgRSV224 virus, the EC50 was 98 nM.

`C[C@@H]1c2ccccc2CCN1C(=O)c1cc(C2CC2)n2nc(-c3ccc([C@H]4C[C@@H]4C(=O)NC#N)cc3F)cc2n1` [Compound 13, (1S,2S)—N-Cyano-2-(4-{7-cyclopropyl-5-[(1R)-1-methyl-1,2,3,4-tetrahydroisoquinoline-2-carbonyl]pyrazolo[1,5-a]pyrimidin-2-yl}-3-fluorophenyl)cyclopropane-1-carboxamide]: in the data set “in vitro”, the CC50 at 3 days is 49800 nM. The EC50 in the data set on rgRSV224 virus was 731 nM.

In the data set “in vitro”, `CCNC(=O)[C@H]1C[C@@H]1c1ccc(-c2cc3nc(C(=O)N4CCc5ccccc5[C@H]4C)cc(C4CC4)n3n2)c(F)c1` [Compound 14, (1S,2S)-2-(4-{7-Cyclopropyl-5-[(1R)-1-methyl-1,2,3,4-tetrahydroisoquinoline-2-carbonyl]pyrazolo[1,5-a]pyrimidin-2-yl}-3-fluorophenyl)-N-ethylcyclopropane-1-carboxamide] gave a CC50 at 3 days above 50000 nM. For the same compound, in the data set on rgRSV224 virus, the EC50 worked out at 170 nM.

In turn, `C#CCNC(=O)[C@H]1C[C@@H]1c1ccc(-c2cc3nc(C(=O)N4CCc5ccccc5[C@H]4C)cc(C4CC4)n3n2)c(F)c1` [Compound 17, (1S,2S)-2-(4-{7-Cyclopropyl-5-[(1R)-1-methyl-1,2,3,4-tetrahydroisoquinoline-2-carbonyl]-pyrazolo[1,5-a]pyrimidin-2-yl}-3-fluorophenyl)-N-(prop-2-yn-1-yl)cyclopropane-1-carboxamide] showed a CC50 at 3 days in “in vitro” above 100000 nM. In the data set on rgRSV224 virus, the 50% effective concentration (EC50) is 182 nM.

`C[C@@H]1c2ccccc2CCN1C(=O)c1cc(C2CC2)n2nc(-c3ccc([C@H]4C[C@@H]4C(=O)NC4(C)CC4)cc3F)cc2n1` [Compound 20, (1S,2S)-2-(4-{7-Cyclopropyl-5-[(1R)-1-methyl-1,2,3,4-tetrahydroisoquinoline-2-carbonyl]-pyrazolo[1,5-a]pyrimidin-2-yl}-3-fluorophenyl)-N-(1-methylcyclopropyl)cyclopropane-1-carboxamide] gave a CC50 at 3 days in “in vitro” above 10000 nM. The EC50 with rgRSV224 virus is 287 nM.

In the case of `C[C@@H]1c2ccccc2CCN1C(=O)c1cc(C2CC2)n2nc(-c3ccc([C@H]4C[C@@H]4C(=O)NCCO)cc3F)cc2n1` [Compound 21, (1S,2S)-2-(4-{7-Cyclopropyl-5-[(1R)-1-methyl-1,2,3,4-tetrahydroisoquinoline-2-carbonyl]-pyrazolo[1,5-a]pyrimidin-2-yl}-3-fluorophenyl)-N-(2-hydroxyethyl)-cyclopropane-1-carboxamide], in the data set “in vitro”, the CC50 at 3 days is above 100000 nM. Further, the half-maximal effective concentration (EC50) in the data set with rgRSV224 virus worked out at 62 nM.

In “in vitro”, `C[C@@H]1c2ccccc2CCN1C(=O)c1cc(C2CC2)n2nc(-c3ccc([C@H]4C[C@@H]4C(=O)N(C)C)cc3F)cc2n1` [Compound 22, (1S,2S)-2-(4-{7-Cyclopropyl-5-[(1R)-1-methyl-1,2,3,4-tetrahydroisoquinoline-2-carbonyl]-pyrazolo[1,5-a]pyrimidin-2-yl}-3-fluorophenyl)-N,N-dimethylcyclopropane-1-carboxamide] showed a CC50 at 3 days of 51800 nM. In addition, the EC50 with rgRSV224 virus came out at 427 nM.

As to `C[C@@H]1c2ccccc2CCN1C(=O)c1cc(C2CC2)n2nc(-c3ccc([C@H]4C[C@@H]4C(=O)N4CCCC4)cc3F)cc2n1` [Compound 23, (1R)-2-(7-Cyclopropyl-2-{2-fluoro-4-[(1S,2S)-2-(pyrrolidine-1-carbonyl)cyclopropyl]-phenyl}pyrazolo[1,5-a]pyrimidine-5-carbonyl)-1-methyl-1,2,3,4-tetrahydroisoquinoline], the CC50 at 3 days in the data set “in vitro” is 16900 nM. The EC50 in the data set with rgRSV224 virus turned out to be 427 nM.

Compound `C[C@@H]1c2ccccc2CCN1C(=O)c1cc(C2CC2)n2nc(-c3ccc([C@H]4C[C@@H]4C(=O)NS(=O)(=O)C(F)(F)F)cc3F)cc2n1` [Compound 29, (1S,2S)-2-(4-{7-Cyclopropyl-5-[(1R)-1-methyl-1,2,3,4-tetrahydroisoquinoline-2-carbonyl]pyrazolo[1,5-a]pyrimidin-2-yl}-3-fluorophenyl)-N-trifluoromethane-sulfonylcyclopropane-1-carboxamide amine salt] came in with a CC50 at 3 days in the data set “in vitro” above 100000 nM. In the data set on rgRSV224 virus, the EC50 stood at 2360 nM.

Turning to `COC(=O)N[C@H]1C[C@@H]1c1ccc(-c2cc3nc(C(=O)N4CCc5ccccc5[C@H]4C)cc(C4CC4)n3n2)c(F)c1` [Compound 33, Methyl N-[(1S,2R)-2-(4-{7-cyclopropyl-5-[(1R)-1-methyl-1,2,3,4-tetrahydroisoquinoline-2-carbonyl]pyrazolo[1,5-a]pyrimidin-2-yl}-3-fluorophenyl)cyclopropyl]carbamate], the CC50 at 3 days in the data set “in vitro” is above 100000 nM. Also, the half-maximal effective concentration (EC50) in the data set on rgRSV224 virus was determined as 155 nM.

Turning to `C[C@@H]1c2ccccc2CCN1C(=O)c1cc(C2CC2)n2nc(-c3ccc([C@H]4C[C@@H]4NC(=O)C4CC4)cc3F)cc2n1` [Compound 35, N-[(1S,2R)-2-(4-{7-Cyclopropyl-5-[(1R)-1-methyl-1,2,3,4-tetrahydroisoquinoline-2-carbonyl]pyrazolo[1,5-a]pyrimidin-2-yl}-3-fluorophenyl)cyclopropyl]cyclopropane-carboxamide], the CC50 at 3 days in “in vitro” is above 100000 nM. Moreover, the EC50 in the data set on rgRSV224 virus was 57 nM.

The values above are taken from patent publication US11491157B2, “Cycloalkyl substituted pyrazolopyrimidines having activity against RSV” (priority 2018, dated 2022).
